Assay results reported in patent US9308215B2, “Avermectins and milbemycins as anti-mycobacterial agents” (priority 2013, dated 2016).
Converted amounts (≈) assume the structure as drawn. Like-named read-outs stand apart in the source and are kept apart here.

Tests used:
E. coli = experiment: microbe, parasite or virus in culture; assay type: cell-based, Escherichia coli; details: strain O157:H7, WT
A. baumannii = experiment: microbe, parasite or virus in culture; assay type: cell-based, Acinetobacter baumannii; details: strain ATCC 1960, WT
P. aeruginosa = experiment: microbe, parasite or virus in culture; assay type: cell-based, Pseudomonas aeruginosa; details: strain PA01 (H103), WT
S. lividans = experiment: microbe, parasite or virus in culture; assay type: cell-based, Streptomyces lividans; details: strain 1326, WT
R. jostii = experiment: microbe, parasite or virus in culture; assay type: cell-based, Rhodococcus jostii; details: strain RHA1, WT
K. rhizophila = experiment: microbe, parasite or virus in culture; assay type: cell-based, Kocuria rhizophila; details: WT
S. aureus = experiment: microbe, parasite or virus in culture; assay type: cell-based, Staphylococcus aureus; details: strain ATCC 25923, WT
M. smegmatis = experiment: microbe, parasite or virus in culture; assay type: cell-based, Mycobacterium smegmatis; details: strain mc^2155, WT
M. bovis BCG = experiment: microbe, parasite or virus in culture; assay type: cell-based, Mycobacterium bovis; details: strain BCG Pasteur, WT
M. tuberculosis [1] = experiment: microbe, parasite or virus in culture; assay type: cell-based, Mycobacterium tuberculosis
M. aurum = experiment: MIC against mycobacterial species; assay type: cell-based; details: M. aurum
M. avium = experiment: MIC against mycobacterial species; assay type: cell-based, Mycobacterium avium
M. chelonae = experiment: MIC against mycobacterial species; assay type: cell-based; details: M. chelonae
M. gordonae = experiment: MIC against mycobacterial species; assay type: cell-based; details: M. gordonae 324
M. intracellulare = experiment: MIC against mycobacterial species; assay type: cell-based
M. microti = experiment: microbe, parasite or virus in culture; assay type: cell-based
M. phlei = experiment: MIC against mycobacterial species; assay type: cell-based; details: M. phlei
[2] = tested on: M. tuberculosis H37Rv and mc25857 (an MDR isolate); assay type: cell-based, Mycobacterium tuberculosis; details: in vitro against M. tuberculosis, survival kinetics
M. tuberculosis Erdman [3] = experiment: Mouse in vivo TB model, acute (GKO); details: for Toxicity / Log10 cfu reduction (lungs): Acute (GKO), Erdman; for Log10 cfu reduction (lungs): 50/35/15 H2O/PEG300/PG
Experimental: Mice were low-dose aerosol infected (50-100 bacteria). In the acute model, immune compromised mice were left untreated for 13 days to allow the infection to become established before 9 days of consecutive drug therapy was initiated. Drugs were administered by oral gavage. Log10 cfu reductions in the lungs were compared to untreated group. Rifampin was included as an internal control. An ordinary one-way ANOVA Bonferroni's multiple comparisons test was used to calculate p values. A p value<0.05 indicates statistically significant differences compared to the control group (vehicle).
Using an acute TB model, immune compromised mice were low-dose aerosol infected and then left untreated for 13 days to allow the infection to become established before 9 days of consecutive drug therapy was initiated. Drugs were administered orally and Log10 cfu reductions in the lungs were compared to and untreated group (vehicle) to rifampin treatment. […] Rifampicin was included as control.

M. tuberculosis Erdman [4] = experiment: Mouse in vivo TB model, chronic (Balb/C); details: 10 mg/kg bw PO
[5] = tested on: representative Gram-positive and Gram-negative bacteria; assay type: cell-based
[6] = Horses, 200 μg/kg oral; cited from earlier work
[7] = 0.2 mg/kg oral, cited from earlier work
[8] = cited from earlier work; for Cmax / AUC / T½: Humans
[9] = Dogs, 250 μg/kg oral; cited from earlier work
[10] = mice; cited from earlier work
[11] = single dose, clinical studies, cited from earlier work
[12] = ivermectin: extra-label use; selamectin, moxidectin: therapeutic doses; cited from earlier work
M. tuberculosis [13] = details: Jayaram et al. 2003; cited from earlier work
[14] = less sensitive strains CI15072, CI12081, BC-MDR2, BC-DS4 and BC-DS5

Compound: CC[C@H](C)[C@H]1O[C@]2(CC[C@@H]1C)C[C@@H]1C[C@@H](C/C=C(\C)[C@@H](O[C@H]3C[C@H](OC)[C@@H](O[C@H]4C[C@H](OC)[C@@H](O)[C@H](C)O4)[C@H](C)O3)[C@@H](C)/C=C/C=C3\CO[C@@H]4[C@H](O)C(C)=C[C@@H](C(=O)O1)[C@]34O)O2 [Ivermectin]
- In vitro MIC90 (E. coli): >256 µg/mL
- In vitro MIC90 (A. baumannii): >256 µg/mL
- In vitro MIC90 (P. aeruginosa): >256 µg/mL
- In vitro MIC90 (S. lividans): >256 µg/mL
- In vitro MIC90 (R. jostii): >256 µg/mL
- In vitro MIC90 (K. rhizophila): >256 µg/mL
- In vitro MIC90 (S. aureus): >256 µg/mL
- In vitro MIC90 (M. smegmatis): 8 µg/mL
- In vitro MIC90 (M. bovis BCG): 4 µg/mL
- MIC50 (M. tuberculosis [1]; [14]): < 8 µg/mL
- MIC90 (M. tuberculosis [1]; [14]): 24 µg/mL (≈ 27.4 µM)
- In vitro MIC90 (M. tuberculosis [1]; strain 1254, WT): 8 µg/mL
- In vitro MIC90 (M. tuberculosis [1]; strain BC-DS1 (drug-susceptible)): 4 to 16 µg/mL
- In vitro MIC90 (M. tuberculosis [1]; strain BC-DS3 (drug-susceptible)): 8 to 16 µg/mL
- value in parentheses in MIC90 column (MIC50) (M. tuberculosis [1]; strain BC-DS4): 8 µg/mL
- In vitro MIC90 (M. tuberculosis [1]; strain BC-DS4 (drug-susceptible)): 64 µg/mL
- value in parentheses in MIC90 column (MIC50) (M. tuberculosis [1]; strain BC-DS5): 8 µg/mL
- In vitro MIC90 (M. tuberculosis [1]; strain BC-DS5 (drug-susceptible)): > 128 µg/mL
- value in parentheses in MIC90 column (MIC50) (M. tuberculosis [1]; strain BC-MDR2): 8 µg/mL
- In vitro MIC90 (M. tuberculosis [1]; strain CDC 1551, WT): 4 to 8 µg/mL
- In vitro MIC90 (M. tuberculosis [1]; strain Erdman, WT): 8 µg/mL
- In vitro MIC90 (M. tuberculosis [1]; strain H37Rv, WT): 6 µg/mL
- MIC (M. aurum): 2 µg/mL (≈ 2.29 µM)
- MIC (M. avium; M. avium 702): >256 µg/mL
- MIC (M. avium; M. avium 715): >256 µg/mL
- MIC (M. avium; M. avium ATCC 25291): >128 µg/mL
- MIC (M. chelonae): 4 µg/mL (≈ 4.57 µM)
- MIC (M. gordonae): 4 µg/mL (≈ 4.57 µM)
- MIC (M. intracellulare; M. intracellulare 1403 ATCC35761): 4 µg/mL (≈ 4.57 µM)
- MIC (M. intracellulare; M. intracellulare 1403 Trudeau): 4 µg/mL (≈ 4.57 µM)
- MIC (M. intracellulare; M. intracellulare D673): 8 µg/mL (≈ 9.14 µM)
- MIC (M. intracellulare; M. intracellulare FM): 8 µg/mL (≈ 9.14 µM)
- MIC (M. microti; M. microti 1601): 4 µg/mL (≈ 4.57 µM)
- MIC (M. microti; M. microti 1608): 256 µg/mL (≈ 293 µM)
- MIC (M. phlei): 32 µg/mL (≈ 36.6 µM)
- bactericidal or bacteriostatic [2]: Bactericidal
- activity in vivo in acute TB model (M. tuberculosis Erdman [3]; 5 and 10 mg/kg doses, oral, Erdman 107): did not show activity
- Toxicity (M. tuberculosis Erdman [3]; 5 mg/kg bw PO): None
- Log10 cfu reduction (lungs) (M. tuberculosis Erdman [3]; 5 mg/kg bw PO): 0.32 Log10 cfu
- Toxicity (M. tuberculosis Erdman [3]; 10 mg/kg bw PO): None
- Log10 cfu reduction (lungs) (M. tuberculosis Erdman [3]; 10 mg/kg bw PO): 0.4 Log10 cfu
- Toxicity (M. tuberculosis Erdman [4]): None
- Log10 cfu reduction (lungs) (M. tuberculosis Erdman [4]; 50/35/15 H2O/PEG300/PG): −0.11 Log10 cfu
- Inhibitory effects [5]: not observed
- AUC [6]: 3184 ng·h/mL
- Cmax [6]: 44 ng/mL
- T½ [6]: 20 h
- Cmax ([7]; Mouse (lung)): 20 ng/mL
- AUC ([7]; Mouse (plasma)): 573 ng·h/mL
- Cmax ([7]; Mouse (plasma)): 20 ng/mL
- T½ ([7]; Mouse (plasma)): 9.3 h
- Cmax ([8]; 12 mg (165 μg/kg) oral): 47 ng/mL
- AUC ([8]; 30 mg (347-541 μg/kg) oral): 2819 ng·h/mL
- Cmax ([8]; 30 mg (347-541 μg/kg) oral): 85 ng/mL
- T½ ([8]; 30 mg (347-541 μg/kg) oral): 19 h
- AUC ([8]; 30 mg (fed) oral): 4564 ng·h/mL
- Cmax ([8]; 30 mg (fed) oral): 260 ng/mL
- T½ ([8]; 30 mg (fed) oral): 15 h
- AUC ([8]; 90 mg (1031-1466 μg/kg) oral): 2910 ng·h/mL
- Cmax ([8]; 90 mg (1031-1466 μg/kg) oral): 158 ng/mL
- T½ ([8]; 90 mg (1031-1466 μg/kg) oral): 19 h
- AUC ([8]; 120 mg (1404-2000 μg/kg) oral): 4547 ng·h/mL
- Cmax ([8]; 120 mg (1404-2000 μg/kg) oral): 247 ng/mL
- T½ ([8]; 120 mg (1404-2000 μg/kg) oral): 19 h
- plasma concentrations ([8]; healthy volunteers, 120 mg): ca. 0.25 μg/mL
- maximal concentration in plasma ([8]; standard dose of 12 mg): ca. 50 ng/mL
- AUC [9]: 5600 ng·h/mL
- Cmax [9]: 132 ng/mL
- T½ [9]: 80 h
- LD50 [10]: 25 mg/kg body weight
- dose reported safe in humans [11]: ≤ 120 mg
- dose reported safe in humans ([11]; listed as ivermectin): 120 mg
- toxicity in dogs lacking MDR1 P-glycoprotein / homozygous MDR1 mutation [12]: severe signs of neurotoxicity

Compound: CO[C@H]1/C=C/O[C@@]2(C)Oc3c(C)c(O)c4c(O)c(c(/C=N/N5CCN(C)CC5)c(O)c4c3C2=O)NC(=O)/C(C)=C\C=C\[C@H](C)[C@H](O)[C@@H](C)[C@@H](O)[C@@H](C)[C@H](OC(C)=O)[C@@H]1C [Rifampin]
- AUC24/MIC value required for 1 log 10 CFU/ml reduction, relative to avermectins and milbemycins (M. tuberculosis [13]): more than 10 times higher
